Reference: publication PMC5527305, “Prevention of Ophthalmia Neonatorum Caused by Neisseria gonorrhoeae Using a Fatty Acid-Based Formulation” (mBio, 2017)
Converted amounts (≈) assume the structure as drawn.

Assays:
chorioallantoic membrane = assay: Hen's egg test-chorioallantoic membrane (HET-CAM); parameters: species or system white leghorn eggs
Protocol: The samples were all tested on the HET-CAM at 1 mg/ml, providing a range of 3.6 mM for linolenic acid to 5 mM for lauric acid. […] Results from the controls and an example of a tested candidate are illustrated in Fig. 5.
The HET-CAM was performed as described by Alany and coworkers ([20]). Fertilized white leghorn eggs (Henry Stewart and Co. Ltd., Fakenham, Norfolk, United Kingdom) were checked for damage and incubated at 37°C with 60% to 70% relative humidity. At day 4, the eggs were removed from their shells and placed in incubation chambers. At day 9, the CAMs were tested. This was done by applying 200 µl of the testing material and monitoring inflammatory responses at 30, 120, and 300 s. At each of these time points, the conjunctival irritation potential of the test substance on the CAMs was evaluated by assessing them against the published scoring system ([20]).

bovine RBCs = assay: Red blood cell (RBC) lysis assay; format: cell-based; conditions: H50 = concentration to lyse 50% of RBCs; MBC from Table 1
Protocol: Whole bovine blood was obtained from a local slaughter house (ABP), adding 90 ml blood to 10 ml 110 mM trisodium citrate anticoagulant. RBCs were isolated the same day. The RBCs were washed by three repeats of centrifugation (1,500 × g for 10 min) and resuspension in phosphate-buffered saline (PBS) with 10 mM glucose (PBSG). Testing was done following the guidelines of the European Union Reference Laboratory for alternatives to animal testing (EURL-ECVAM) ([22]). The organic acids were solubilized in dimethyl sulfoxide (DMSO) and diluted to a maximum DMSO concentration of 10%. In a 2-ml centrifuge tube, 750 µl of the sample was added to 250 µl RBCs. Controls used in the assay were a complete lysis control (deionized water) and a fragility control (PBSG–10% DMSO). Samples were shaken at room temperature for 1 h and then centrifuged at 14,000 × g for 2 min. An aliquot of 750 µl of the supernatant was taken and its absorbance at 451 nm measured.

[1] = system: nine gonococcal isolates (strain NCCP11945 and eight isolates from Public Health England); assay: Minimum bactericidal concentration by log reduction against nine gonococcal isolates; format: cell-based, Neisseria gonorrhoeae; conditions: 2 min; for Killing of all gonococcal cells for all isolates: 1 mM; for MBC: Neisseria gonorrhoeae, lowest concentration giving mean log reduction above 4 from a 2-min exposure, read-out: MBC
Source text: The seven candidates were further tested against nine gonococcal isolates, including strain NCCP11945 and eight isolates from Public Health England, to find their minimal bactericidal concentration (MBC). This was defined as the lowest concentration tested to give an average 4-log10 reduction in bacterial count after a 2-min exposure. […] Any candidate that killed all gonococcal cells in the cell suspension was given a log reduction score of six.
(§1) The well-characterized N. gonorrhoeae NCCP11945 strain ([36]) was used in the screening stage. Eight isolates obtained from Public Health England, representing circulating isolates from various European locations, were used in the log reduction assays. All isolates were cultured for 24 h prior to testing by plating on GC solid medium (Oxoid Limited, Hampshire, United Kingdom) with Kellogg supplements and incubation at 37°C and 5% CO2 ([37]).
(§2) Log reductions were done as described by Bergsson and coworkers ([18]). Briefly, cells were suspended in GC broth (18 g/liter GC base [Oxoid, Limited] with added defined supplements) to an optical density at 520 nm of 0.3, which is approximately equivalent to 10^7 to 10^8 cells per ml ([38]). […] The contents of the tubes were then mixed at room temperature for 2 min and immediately diluted in a 10-fold dilution series to 10^−4. The dilutions were plated by spreading 10 µl on a quarter of a plate; a 100-µl neat solution was also plated. Plates were then incubated at 37°C for 48 h, with all samples plated in duplicate. […] Additional testing at lower concentrations was also done on the eight clinical isolates of European origin.

[2] = system: N. gonorrhoeae strain NCCP11945; assay: Log reduction assay in GC broth, 2-min exposure; format: cell-based, Neisseria gonorrhoeae; conditions: for log reduction at 1000 µM: Neisseria gonorrhoeae, NCCP11945, 2 min, 1 mM, read-out: Log reduction at 1 mM (calculated log reduction in viable bacteria)
Protocol: (§3) To find potential candidates, 37 organic acids, esters, and salts were tested in a two-tiered screening process. These candidates were chosen based on the carbon chain lengths of the fatty acids, the presence or absence of saturation, and modifications to represent a diverse selection of organic acid candidates. The first screen aimed to determine the ability of each compound to inhibit the growth of N. gonorrhoeae strain NCCP11945 at 1 mM in GC solid media (Table 1). This strain was chosen due to its relatively recent isolation, its antibiotic resistance profile, and the availability of a complete genome sequence. Those candidates able to inhibit the growth of N. gonorrhoeae strain NCCP11945 were investigated in a second assay. The second assay tested the ability of each compound to cause at least a 4-log reduction in viable bacteria at 1 mM with a 2-min exposure time (Table 1).
as §2

[3] = system: N. gonorrhoeae strain NCCP11945; assay: Growth inhibition screen on GC solid media containing 1 mM candidate; format: cell-based, Neisseria gonorrhoeae; conditions: 1 mM candidate in GC agar media; Yes = strain NCCP11945 did not grow
Protocol: as §3, §1

bovine cornea = assay: Bovine corneal opacity and permeability (BCOP) test
Protocol: Bovine eyes were collected from a local slaughter house (ABP, Guildford, Surrey, United Kingdom) and were transported in cold saline solution for testing at the laboratory. Each eye was first visually examined for signs of damage before use. The test was conducted as detailed by Abdelkader and coworkers ([21]). The exposure time of the test substances was 30 s. The selected bactericidal compounds were tested at 1 mM in saline solution, with a corresponding vehicle control (1% ethanol–saline solution) also performed. […] The test area of the cornea was then washed with 10 ml saline solution. Corneal damage to the test area was assessed by fluorescein staining and examination under a cobalt blue filter. Pathological scoring based on opacity, epithelial integrity, and epithelial detachment was done in accordance with previous publications ([19]). Each of the seven lead candidates was tested in triplicate, and each test was performed on a separate day using a different batch of eyeballs. Corneal histology was done as outlined by Abdelkader and coworkers ([21]) by evaluating the damage to the epithelial layer and stroma of the cornea after hematoxylin and eosin staining.

S. aureus = system: S. aureus; parameters: method as in PMID 22808139; conditions: continuous passage on sublethal concentrations for a year; cited from earlier work
[4] = system: gonococcal cells (isolate NCCP 11945); assay: Log reduction in artificial tear fluid with or without calcium chloride; format: cell-based, Neisseria gonorrhoeae; conditions: calcium 1 mM; Fig. 2
Protocol: The antigonococcal properties of the seven selected fatty acids were tested in artificial tear fluid, which contained calcium chloride. The addition of 1 mM lauric acid, tridecanoic acid, or sodium dodecanoate gave no reduction in bacterial cell number after exposure, in contrast to the results seen when they were tested in culture medium (Fig. 2). […] This was most likely due to the negative effect of calcium on the aqueous solubility of these candidates.
Artificial tear fluid was made as described by Mirejovsky and others ([39]) with or without calcium chloride. […] As with the previous log reductions, 10^7 gonococcal cells (isolate NCCP 11945) were suspended in GC broth. The cell suspension was centrifuged to remove the culture medium, and the bacteria were resuspended in the tear fluid. This was then added to the concentrated organic acid candidates. The cells were then enumerated again after 2 min of exposure to estimate any reduction in cell number due to the exposure to the organic acid.

C. trachomatis = system: C. trachomatis; parameters: method as in PMID 9736551; conditions: cited from earlier work
[5] = maximum score 6 = all cells killed

| Compound | HET-CAM irritancy / reaction at site of application (chorioallantoic membrane) | Killing of all gonococcal cells for all isolates [1] | MBC [1] [µM] | Log reduction at 1 mM: at least a 4-log reduction in viable bacteria (Yes/No) [2] | log reduction at 1000 µM [2, 5] | Growth inhibition [3] | also measured |
| --- | --- | --- | --- | --- | --- | --- | --- |
| CC(C)=O [Acetone, acetone] | Medium Irritant |  |  |  |  |  |  |
| CC/C=C\C/C=C\C/C=C\CCCCCCCC(=O)O [Linolenic acid] |  | did not | 500 (≈ 139 µg/mL) | Yes | > 6 | Yes | H50 concentration relative to MBC (bovine RBCs): lower than their minimum bactericidal concentration; Mean cumulative BCOP score (bovine cornea; 1 mM in saline solution, 30 s exposure, triplicate): lower than 0.5; Fluorescein staining of cornea (bovine cornea; 1 mM, around rubber application ring): any sign of fluorescein staining; BCOP irritancy classification (bovine cornea; candidates 1 mM in saline, controls 0.5 M NaOH, 100% acetone, 30 s exposure): nonirritants |
| CCCCCCCCCCCC(=O)OCC(O)CO (centres unmarked) [Monolaurin] |  |  |  | No |  | Yes | Development of antimicrobial resistance (S. aureus): did not develop; Log reduction at 1 mM (calculated log reduction in viable bacteria) [2, 5]: 3.4 log10 |
| CCCC/C=C\CCCCCCCC(=O)O [Myristoleic acid] |  | killed all gonococcal cells for all isolates | 500 (≈ 113 µg/mL) | Yes | > 6 | Yes | Effect of calcium in artificial tear fluid on antimicrobial effect [4]: unaffected; Activity against C. trachomatis (C. trachomatis): ineffective |
| [Na+].[OH-] [Sodium Hydroxide, sodium hydroxide, reference compound] | Strong Irritant |  |  |  |  |  | Corneal opacity, fluorescein staining and histology of epithelial layer (bovine cornea; Fig. 4): complete detachment |
